Earlier results in patent publication US9308212B2, “Compositions comprising alprazolam for treating primary insomnia and insomnia associated with anxiety states and process for preparing them” (LABORATORIOS BAGO S.A., priority 2008, dated 2016).

## CO[C@@H]1[C@@H](OC(N)=O)[C@@H](O)[C@H](Oc2ccc3c(O)c(NC(=O)c4ccc(O)c(CC=C(C)C)c4)c(=O)oc3c2C)OC1(C)C [amorphous novobiocine, novobiocine]
  Solubility of the amorphous form relative to the crystalline form: 10 times
